Measurements from patent publication US10471073B2, “Methods of reducing mammographic breast density and/or breast cancer risk” (Havah Therapeutics Pty Ltd., priority 2016, dated 2019).

Columns and labels:
[1] = system: person with macromastia; assay: Macromastia: breast volume by water displacement; format: in vivo, human; details: tamoxifen and oral contraceptive therapy before the pellet
Method: The treatment consisted of testosterone 100 mg and anastrazole 3 mg compounded into a 4.5 mm pellet. The pellet was inserted into the subcutaneous fat of the lower abdominal wall.
Prior to treatment (Pre-treatment) the right and left breasts were separately placed in a calibrated bucket and the volume of displacement for each breast was measured. This was accomplished by submerging each breast until the breast was fully submerged but the water was not touching the chest wall. After one month of treatment the volume measurements were repeated using the same water displacement methodology. Fluid displacements were measured in mls.

[2] = system: pre-menopausal person; details: prior art; cited from earlier work
[3] = system: androgen receptor (AR); assay: IHC of high MBD breast tissue explants with columnar cell change: androgen receptor; format: cell-based, human; details: for AR, percentage of cell staining: 24 hours, E 5 nM, T 10 nM, G 100 nM, A 25 ng/L [sic]; for effect on AR levels: tissue samples of both patients
Method: (§1) The samples are transported on ice for Prostate-specific antigen (PSA) determination. […] PSA is detectable in greater than 90% of the nipple fluid aspirations of normal women. […] This area was removed and transported on ice to the laboratory for explant culture. […] A representative piece of each tissue sample was immediately fixed in 4% formalin in phosphate-buffered saline (PBS) overnight at 4° C., followed by dehydration using an automatic tissue processor (Sakura Tissue-Tek VIP, USA) and paraffin wax embedding. A haematoxylin and eosin (H&E) stained section was used to assess tissue pathology. Additional consecutive sections were subjected to antigen retrieval to assess androgen receptor levels by immunohistochemistry (IHC). The remaining fresh tissue was cut into small (˜3×3×1 mm) pieces, and placed as triplicates on 1 cm^3 gelatin sponges (Spongostan; Johnson & Johnson, Skipton, UK) that were pre-soaked and then half submerged in treatment media containing 10% by volume dextran-coated charcoal stripped fetal calf serum (DCC-FCS) (SAFC biosciences, Kansas, USA) in 24-well tissue culture plates (BD Biosciences, NJ, USA). The tissues samples of both patients were cultured for 24 hours in a vehicle of 0.1% by volume of ethanol and subjected to the treatments set forth in Table 17.
(§2) Following 24 hours culturing in a 5% by volume CO2 enriched atmosphere at 37° C., the treated tissues samples were processed for IHC analyses as indicated below. Established IHC protocols were used to determine hormone receptor androgen receptor status in the 4 tissue samples prior to culture. Following microwave antigen retrieval in […] (pH6.5) tissue sections were incubated at 4° C. overnight with primary antibody for androgen receptor, estrogen receptor and PSA. Negative controls were generated by replacement of the primary antibodies with PBS. Tissues were dehydrated in ethanol and xylene and mounted with DPX (VWR International Ltd, England, UK). Following staining, digital images of stained sections were generated with a NanoZoomer scanner (Hamamatsu, Japan) to enable analyses of % positivity in untreated tissues, using Visual Image Analysis software (Video Pro, South Australia). A pathologist undertook histological evaluation with 25 years experience in breast pathology.

[4] = system: estrogen receptor (ER); assay: IHC of high MBD breast tissue explants with columnar cell change: estrogen receptor; format: cell-based, human; details: 24 hours, E 5 nM, T 10 nM, G 100 nM, A 25 ng/L [sic]
Method: as §1, §2

[5] = system: prostate specific antigen (PSA); assay: IHC of high MBD breast tissue explants with columnar cell change: PSA; format: cell-based, human; details: for PSA, percentage of cell staining: 24 hours, E 5 nM, T 10 nM, G 100 nM, A 25 ng/L [sic]; for effect on PSA levels: tissue samples of both patients
Method: as §1, §2

[6] = cited from earlier work

SMILES | breast growth in macromastia [1] | mammographic breast density [2] | AR, percentage of cell staining ([3]; Patient 1 explant, vehicle […]%) | AR, percentage of cell staining ([3]; Patient 2 explant, vehicle 10%) | effect on AR levels [3] | ER, percentage of cell staining ([4]; Patient 1 explant, vehicle 90%) | ER, percentage of cell staining ([4]; Patient 2 explant, vehicle 75%) | PSA, percentage of cell staining ([5]; Patient 1 explant, vehicle 20%) | PSA, percentage of cell staining ([5]; Patient 2 explant, vehicle […]%) | effect on PSA levels [5] | fraction broken down in the liver as it is absorbed from the gut ([6]; oral delivery) | fraction broken down in the intestines by aromatase and other metabolic pathways ([6]; oral)
CC/C(=C(\c1ccccc1)c1ccc(OCCN(C)C)cc1)c1ccccc1 [tamoxifen] | failed to cease the breast growth | reduce |  |  |  |  |  |  |  |  |  | 
C[C@](O)(COc1ccc(C#N)cc1)C(=O)Nc1ccc(C#N)c(C(F)(F)F)c1 [GTx-024, (2S)-3-(4-cyanophenoxy)-N-[4-cyano-3-(trifluoromethyl)phenyl]-2-hydroxy-2-methylpropanamide] |  |  | 45% | 55% | increased | 45% | 25% | 50% | 55% | increased |  | 
CC(C)(C#N)c1cc(Cn2cncn2)cc(C(C)(C)C#N)c1 [Anastrozole, 2,2′-[5-(1H-1,2,4-triazol-1-ylmethyl)-1,3-phenylene]bis(2-methylpropanenitrile)] |  |  |  |  |  |  |  | 35% | 25% | mild stimulatory effect |  | 
C[C@]12CC[C@@H]3c4ccc(O)cc4CC[C@H]3[C@@H]1CC[C@@H]2O [Estradiol, estradiol] |  |  | 5% | <5% |  | >95% | >95% | 5% | <5% |  |  | 
C[C@]12CC[C@H]3[C@@H](CCC4=CC(=O)CC[C@@]43C)[C@@H]1CC[C@@H]2O [Testosterone, testosterone] |  |  | 35% | 25% | increased | 50% | 45% | 65% | 45% | increased | 80-90% | approximately 85%
